Article PMC7216467, “Evaluation of neuroprotective and anti-amnesic effects of Elaeagnus umbellata Thunb. On scopolamine-induced memory impairment in mice” (BMC Complementary Medicine and Therapies, 2020)

What was measured:
[1] = DPPH scavenging assay
Experimental: About 24 mg, DPPH was dissolved in 100 mL methanol. Compounds solutions (1 mg/mL) were also prepared in methanol. […] About 0.1 mL of each working dilution was mixed with DPPH (3.0 mL) and incubated at 25 °C for 30 min. […] Ascorbic acid was used as a standard.

[2] = ABTS scavenging assay
Experimental: About 300 μL compounds working dilutions and 3.0 mL ABTS solutions were mixed and incubated for 6 min. Finally the absorbance was measured via UV spectrophotometer. Ascorbic acid was used as positive control. % ABTS scavenging potential was measured using eq. 4.

[3] = target: T1, Acetyl cholinesterase (Electron-eel Type, VI-S) (Electrophorus electricus, UniProt O42275); assay: biochemical; type: biochemical; conditions: for IC50: linear regression, read-out: AChE IC50 (converted)
T1 construct: purchased Sigma-Aldrich, Germany
Experimental: Ellman assay was used to evaluate E. umbellata fruit extracts and isolated compounds for their anticholinesterase potentials. About 205 μL extract/compound solutions and 5 μL of AChE (0.03 U/mL)/BChE (0.01 U/mL) along with catalyst DTNB (5 μL) were taken in a cuvette and kept at 30 °C in hot water bath for 15 min. […] As a negative control solution all the above mentioned components except extracts and isolated compounds were mixed in the mentioned order.
V is inhibitor dependent rate of reaction while, Vmax is inhibitor independent rate of reaction.

[4] = system: scopolamine-induced cognitive impairment in mice; assay: Y-maze test, scopolamine-induced amnesia; type: in vivo
Experimental: (§1) After the acclimatization period, in scopolamine-induced amnesia test the Albino male mice were randomly divided into six groups (n = 6) to study the effect of CHF. […] The doses of tested solutions of CHF. […] The treatments were continued for 8 days. In the Y-maze and Novel object recognition tests, scopolamine (1 mg/kg, i.p.) was given to the different groups only on the 8th day, 30 min after the respective treatments, to induce cognitive deficit in mice. One hour after administration of the drugs all animals were subjected to Y-maze and Novel object recognition test following standard procedure.
The Y-Maze test was designed to evaluate the short term memory in experimental mice using reported procedure. Y-maze apparatus is Y shaped with three arms of equivalent size, labelled as A, B, and C. Each arm was 20 cm long, 6 cm wide and 15.5 cm high and was oriented at an angle of 120° from the other two. For each animal the Y maze testing was carried out for 5 min. Mice were placed in one arm, and the order and number of arm entries were recorded. An arm entry was considered to be complete when the hind paws of the mice was completely inside a given arm while alternation was defined as consecutive entries by a mouse into the three different arms. The arena was cleaned using 70% v/v ethanol between each trial to avoid olfactory cues. The escape latency (second) on day 1–5 were recorded for all animals. At the end of 5th day, the spontaneous alteration behavior study was conducted. In spontaneous alteration study, each animal was placed at the center of the Y-Maze apparatus and allowed to move freely through the maze. The series of arm entries were visually recorded. To start behavioral test the mice was set in one arm and recorded the number of arm entries, same arm returns (SAR), and alternate arm returns (AAR) were measured. Percent spontaneous alternation performance (SAP) was calculated by the following formula: 5 %SAP=Active alterationstotal alterations/Possible alterationstotalarmentries−2x100

[5] = system: scopolamine-induced cognitive impairment in mice; assay: Novel object recognition test, scopolamine-induced amnesia; type: in vivo; conditions: donepezil 2 mg/kg
Experimental: as §1
The detail methodology published, was followed while performing the novel object recognition (NORT) test. NORT consisting of habituation, sample, and test phases. On the day before test, mice were allowed to explore the box (without any object) for 2 min. On the day of test after habituation the sample phase was carried out 60 min after the last treatment on the 8th day. In sample phase each mouse was placed in an open field with two identical objects (plastic ball) for 5 min. The mouse was then returned to its home cage. The apparatus was comprised of a white coloured plywood box (40 cm × 40 cm × 66 cm) with a network floors that could be effortlessly cleaned (with 70%v/v ethanol) after every trial. The apparatus was illuminated by a 60 W light suspended 50 cm over the crate. The arena and objects were cleaned with 70% v/v ethanol between trials to avoid olfactory cues. For short-term memory, the test phase was performed 5 min after the sample phase. In the test phase, each mouse was placed again in the open field in which one of the identical objects had been replaced with a novel object (plastic square). The location of the object was counterbalanced so that one half of the mice in each group saw the novel object on the left side of the box arena, and the other half saw the novel object on the right side of the box arena to eliminate bias of sides. NORT can also be used for encoding and retrieval of spatial memory (long-term memory). A wash-out period of 5 days was allowed before the NORT to assess long-term memory in mice. The procedure was the same as that for short-term memory except that mice were presented in the test phase 24 h after the sample phase exposure. The time spent exploring each object in each phase was recorded manually using a stopwatch. A mouse was scored as exploring when its head was oriented towards the object within a distance of 2 cm or when the nose was in contact with the object. Parameters including the time (in seconds) spent exploring familiar (F) object, time (in seconds) spent exploring the novel (N) object, and total time (in seconds) spent exploring both objects (N + F) were measured separately.

[6] = vs scopolamine (1 mg/kg) group, CHF. Ext 200 mg/kg, CGA 10 and 30 mg/kg, donepezil 2 mg/kg

T1 sequence (O42275 24-633): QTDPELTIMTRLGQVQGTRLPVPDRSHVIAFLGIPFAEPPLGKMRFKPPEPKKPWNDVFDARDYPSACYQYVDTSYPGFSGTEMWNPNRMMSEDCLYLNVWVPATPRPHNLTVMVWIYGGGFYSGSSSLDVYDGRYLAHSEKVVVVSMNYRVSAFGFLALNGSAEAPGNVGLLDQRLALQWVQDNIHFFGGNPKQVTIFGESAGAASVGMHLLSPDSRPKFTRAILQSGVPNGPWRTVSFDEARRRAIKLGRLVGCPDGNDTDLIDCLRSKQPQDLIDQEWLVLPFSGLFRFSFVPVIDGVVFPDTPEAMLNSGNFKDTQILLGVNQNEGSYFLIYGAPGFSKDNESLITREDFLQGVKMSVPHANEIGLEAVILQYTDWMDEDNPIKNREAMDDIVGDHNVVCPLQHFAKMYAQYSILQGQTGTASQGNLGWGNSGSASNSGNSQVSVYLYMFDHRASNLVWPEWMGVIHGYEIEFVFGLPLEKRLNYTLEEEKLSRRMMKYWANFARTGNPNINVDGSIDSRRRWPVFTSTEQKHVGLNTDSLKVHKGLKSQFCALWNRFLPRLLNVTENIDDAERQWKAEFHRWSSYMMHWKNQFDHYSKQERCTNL

| SMILES | DPPH IC50 [1] [µg/mL] | % DPPH Scavenging Mean ± SEM ([1]; 31.05 µg/mL) [%] | % DPPH Scavenging Mean ± SEM ([1]; 62.5 µg/mL) [%] | % DPPH Scavenging Mean ± SEM ([1]; 125 µg/mL) [%] | % DPPH Scavenging Mean ± SEM ([1]; 250 µg/mL) [%] | % DPPH Scavenging Mean ± SEM ([1]; 500 µg/mL) [%] | % DPPH Scavenging Mean ± SEM ([1]; 1000 µg/mL) [%] | ABTS IC50 [2] [µg/mL] | % ABTS Scavenging Mean ± SEM ([2]; 31.05 µg/mL) [%] | % ABTS Scavenging Mean ± SEM ([2]; 62.5 µg/mL) [%] | % ABTS Scavenging Mean ± SEM ([2]; 125 µg/mL) [%] | % ABTS Scavenging Mean ± SEM ([2]; 250 µg/mL) [%] | % ABTS Scavenging Mean ± SEM ([2]; 500 µg/mL) [%] | % ABTS Scavenging Mean ± SEM ([2]; 1000 µg/mL) [%] | % AChE Mean ± SEM ([3]; 31.05 µg/mL) [%] | % AChE Mean ± SEM ([3]; 62.5 µg/mL) [%] | % AChE Mean ± SEM ([3]; 125 µg/mL) [%] | % AChE Mean ± SEM ([3]; 250 µg/mL) [%] | % AChE Mean ± SEM ([3]; 500 µg/mL) [%] | % AChE Mean ± SEM ([3]; 1000 µg/mL) [%] | other results |
| --- | --- | --- | --- | --- | --- | --- | --- | --- | --- | --- | --- | --- | --- | --- | --- | --- | --- | --- | --- | --- | --- |
| O=C(O)c1cc(O)c(O)c(O)c1 [Compound-III, Gallic acid] | 52 | 43±1.4 | 48±0.5 | 50±1.2 | 59±1.5 | 70±1.1 | 76±0.5 | 54 | 43±1.3 | 48±0.4 | 50±1.5 | 54±1.1 | 60±0.5 | 65±2.1 | 39±0.5 | 43±1.1 | 49±1.4 | 55±0.3 | 62±1.2 | 76±2.1 | IC50 [3]: 265 µM |
| O=c1oc2c(O)c(O)cc3c(=O)oc4c(O)c(O)cc1c4c23 [Compound-II, Ellagic acid] | 39 | 44±1.4 | 57±0.5 | 59±0.4 | 60±1.2 | 70±0.5 | 77±1.1 | 44 | 41±0.5 | 49±1.0 | 57±1.0 | 64±0.3 | 65±0.4 | 69±1.0 | 41±0.3 | 48±0.5 | 52±0.4 | 68±0.1 | 75±0.4 | 81±0.5 | IC50 [3]: 195 µM |
| O=C1O[C@H]([C@@H](O)CO)C(O)=C1O [Ascorbic acid, reference compound] | 29 | 69±0.4 | 73±0.5 | 77±0.4 | 80±0.4 | 86±1.0 | 91±0.5 | 32 | 56±1.1 | 64±1.0 | 70±0.5 | 78±0.5 | 84±1.1 | 90±0.5 | – | – | – | – | – | – | – |
| Oc1cc(O)cc(O)c1 [Compound-IV, Phloroglucinol] | 105 | 32±0.5 | 36±1.1 | 40±0.5 | 51±1.0 | 57±1.0 | 67±0.4 | 112 | 25±1.0 | 33±0.5 | 39±1.2 | 45±1.0 | 51±0.5 | 54±1.1 | 21±1.5 | 29±2.1 | 34±1.5 | 40±0.5 | 52±1.6 | 66±1.2 | IC50 [3]: 730 µM |
| COc1cc2c(cc1OC)C(=O)C(CC1CCN(Cc3ccccc3)CC1)C2 (centres unmarked) [Donepezil, reference compound] | – | – | – | – | – | – | – | – | – | – | – | – | – | – | – | – | – | – | – | – | escape latency ([4]; day 1-5, vs scopolamine treated group): significant decline (p < 0.001); percentage of alternate arm returns [4, 6]: significant (*p<0.05; **p < 0.01) increase; percentage of same arm returns [4, 6]: significant (p < 0.01) reduction; time for exploration of novel object, test phase, long term memory ([5]; CHF. Ext 100 & 200 mg/kg, CGA 10 & 30 mg/kg): significant (*p < 0.05, **p < 0.01) increase; %DI, long term memory ([5]; CHF. Ext 100, 200 mg/kg, CGA 10 & 30 mg/kg): significant (*p < 0.05, **p < 0.01) increase; time with novel object, test phase, short term memory ([5]; vs scopolamine group (*p < 0.05, **p < 0.01), CHF. Ext 50, 100, 200 mg/kg, CGA 10 and 30 mg/kg): more time with novel object |
